# Laboratory results reported in publication PMC4941645, “Oxidative Stress Induced by Pt(IV) Pro-drugs Based on the Cisplatin Scaffold and Indole Carboxylic Acids in Axial Position” (Scientific Reports, 2016).
# Tests used:
# [1] = test system: BxPC3 pancreatic carcinoma cells; assay: MTT cytotoxicity test, BxPC3; format: cell-based, human; details: BxPC3, 72 h, MTT, ± S.D.
# Description: (§1) The cytotoxic activity of the complexes and of the uncoordinated ligands was evaluated by the MTT test on a panel of human tumor cell lines containing examples of pancreatic (BxPC3), colorectal (HCT-15), breast (MCF-7), cervical (A431), and lung (A549) cancers as well as of melanoma (A375). For comparison purposes, the cytotoxicity of cisplatin was evaluated under the same experimental conditions.
# (§2) Cisplatin was dissolved in 0.9% NaCl solution.
# (§3) Human breast (MCF-7), colon (HCT-15), lung (A549) and pancreatic (BxPC3) carcinoma cell lines together with melanoma (A375) cells were obtained from American Type Culture Collection (ATCC, Rockville, MD). The human ovarian cancer cell line 2008 and its cisplatin resistant variant, C13*, were kindly provided by Prof. G. Marverti (Department of Biomedical Science of Modena University, Italy). Human cervical carcinoma (A431) cells were kindly provided by Prof. F. Zunino (Division of Experimental Oncology B, Istituto Nazionale dei Tumori, Milan, Italy). Cell lines were maintained in the logarithmic phase at 37 °C in a 5% carbon dioxide atmosphere using the following culture media containing 10% fetal calf serum (Euroclone, Milan, Italy), antibiotics (50 units/mL penicillin and 50 μg/mL streptomycin) and 2 mM L-glutamine: (i) RPMI-1640 medium (Euroclone) for 2008, C13*, MCF-7, HCT-15, A431 and BxPC3 cells, (ii) F-12 HAM’S (Sigma Chemical Co.) for A549 cells, iii) DMEM (Sigma Chemical Co.) for A375 cells.
# (§4) The growth inhibitory effect toward tumor cells was evaluated by means of the MTT assay. Briefly, (3–8) × 10^3 cells/well, dependent upon the growth characteristics of the cell line, were seeded in 96-well microplates in growth medium (100 μL). After 24 h, the medium was removed and replaced with fresh medium containing the compound to be studied at the appropriate concentration. Triplicate cultures were established for each treatment. After 24, 48, or 72 h, each well was treated with 10 μL of a 5 mg/mL MTT saline solution and, after 5 h of incubation, 100 μL of a sodium dodecylsulfate (SDS) solution in 0.01 M HCl was added. After an overnight incubation, cell growth inhibition was detected by measuring the absorbance of each well at 570 nm using a Bio-Rad 680 microplate reader. The mean absorbance for each drug dose was expressed as a percentage of the control, untreated well absorbance and plotted vs drug concentration. The IC50 values, the drug concentrations that decrease the mean absorbance at 570 nm to 50% of that of untreated control wells, were calculated from the dose–response curves with the four-parameter logistic model (4PL). The final value is the mean ± S.D. of at least three independent experiments performed in triplicate.
# [2] = test system: HCT-15 colon carcinoma cells; assay: MTT cytotoxicity test, HCT-15; format: cell-based, human; details: HCT-15, 72 h, MTT, ± S.D.
# Description: as §1, §2, §3, §4
# [3] = test system: MCF-7 breast carcinoma cells; assay: MTT cytotoxicity test, MCF-7; format: cell-based, human; details: MCF-7, 72 h, ± S.D.
# Description: as §1, §2, §3, §4
# [4] = test system: A431 cervical carcinoma cells; assay: MTT cytotoxicity test, A431; format: cell-based, human; details: A431, 72 h, ± S.D.
# Description: as §1, §2, §3, §4
# [5] = test system: A549 lung carcinoma cells; assay: cells; details: A549, 72 h, MTT, ± S.D.
# Description: as §1, §2, §3, §4
# A375 melanoma cells [6] = assay: MTT cytotoxicity test, A375; format: cell-based, human; details: A375, 72 h, ± S.D.
# Description: as §1, §2, §3, §4
# [7] = test system: 2008 ovarian cancer cells; assay: MTT cytotoxicity test, cisplatin-sensitive 2008; format: cell-based, human; details: 2008 cisplatin-sensitive, 72 h, ± S.D.
# Description: The cytotoxic properties of the complexes were also evaluated in a pair of tumor cell lines suitably selected for their sensitivity and resistance to cisplatin (adenocarcinoma cells 2008/C13^*). Cross-resistance profiles were evaluated by means of the resistance factor (RF), defined as the ratio between IC50 values calculated for the resistant cells and those obtained with the sensitive ones (Table 2). The phenomenon of cisplatin resistance is multifactorial in nature. Nevertheless, the main molecular mechanisms involved in drug resistance in C13* cancer cells have largely been identified. Indeed, in this cell line resistance is correlated to high cellular glutathione and thioredoxin reductase levels, reduced cellular drug uptake and enhanced repair of DNA damage. […] The RF values calculated for all derivatives were six- to nine-fold lower than that of cisplatin, clearly indicating the absence of cross-resistance.
# as §2
# Triplicate cultures were established for each treatment.
# [8] = test system: C13* cisplatin-resistant ovarian cancer cells; assay: MTT cytotoxicity test, cisplatin-resistant C13*; format: cell-based, human
# Description: The cytotoxic properties of the complexes were also evaluated in a pair of tumor cell lines suitably selected for their sensitivity and resistance to cisplatin (adenocarcinoma cells 2008/C13^*). Cross-resistance profiles were evaluated by means of the resistance factor (RF), defined as the ratio between IC50 values calculated for the resistant cells and those obtained with the sensitive ones (Table 2). The phenomenon of cisplatin resistance is multifactorial in nature.
# as §2, §3, §4
# [9] = Log P octanol/water, shake flask method with ICP-MS; format: physicochemical; details: n-octanol / 0.9% NaCl water, Pt by ICP-MS
# Description: Partition coefficients (logP values) for octanol/water partition were determined in order to examine whether a correlation exists between lipophilicity and accumulation into cells. The log P values obtained (Table 3) give the trend in lipophilicity as mono indole acid complex < succinate complex < acetate complex < bis indole acid complex < benzoate complex for both the IAA and the IPA series.
# The logP values of the Pt(IV) compounds were determined using the shake flask method. The respective Pt(IV) complex was dissolved in 0.9% NaCl (w/v) ultrapure water (presaturated with n-octanol). The solutions were sonicated and filtered to remove undissolved Pt(IV) compounds. The initial Pt concentrations were determined by ICP-MS. Subsequently, the Pt(IV) solutions were added to an equal volume of n-octanol (presaturated with 0.9% NaCl (w/v) ultrapure water). The heterogeneous mixtures were shaken vigorously for 30 min before centrifuging at 4000 rpm for 30 min to achieve phase separation. The final Pt concentration in the aqueous phase was determined again by ICP-MS. The logarithm of the ratio of Pt concentrations in the organic and aqueous phases was calculated to determine the logP values. All experiments were done in duplicate.
# [10] = test system: panel of human tumor cell lines (BxPC3, HCT-15, MCF-7, A431, A549, A375); assay: MTT cytotoxicity, mean over panel of human tumor cell lines; format: cell-based; details: mean over the six cell lines of Table 1, 72 h
# Description: as §1, §4
# [11] = Stability in physiological saline by mass spectrometry; format: physicochemical; details: 0.9% NaCl
# Description: Ten indole carboxylic acid Pt(IV) complexes with IAA (indole-3-acetic acid, 1A–5A) and IPA (indole-3-propionic acid, 1P–5P) were synthesized and the structures are depicted in Fig. 3. The monocarboxylato complexes 1A and 1P were prepared by reacting oxoplatin, c,c,t-[Pt(NH3)2Cl2(OH)2], with 0.8 eq. of the activated NHS-ester of the corresponding indole carboxylic acid. The dicarboxylato complexes with two indole acids in axial position (2A and 2P) were obtained using an excess of the NHS-ester activated acid (20 eq.), since the second hydroxo group of oxoplatin is much less reactive than the first one. The unsymmetrically substituted complexes (3A–5A and 3P–5P) were prepared by reaction of the monocarboxylate complexes 1A and 1P with the corresponding anhydrides. We chose three different anhydrides (benzoic, acetic and succinic anhydride) to vary the lipophilicity of the resulting Pt(IV) complexes. All the synthesized Pt(IV) complexes were characterized using elemental analysis, ESI-MS, FT-IR, ^1H and ^195Pt NMR spectroscopy. The purity of the complexes has been assessed through elemental analysis and–where solubility was not an issue–by high performance liquid chromatography (HPLC). The dicarboxylato complexes are poorly soluble in organic solvents. The proton NMR spectra of the complexes in DMSO-d6 show the typical signal of the NH3 protons which is a multiplet at around 6 ppm for the monocarboxylato complexes 1P and 1A (typical ^1JNH and ^2JPtH values around 50 Hz) while it is a broad signal around 6.5 ppm for the bis-substituted complexes (2–5A and 2–5P, Supplementary Information)[44]. The mass spectra of the complexes show a peak in the negative mode with the typical platinum isotope pattern corresponding to M − H^− or M + Cl^−. Stability studies on representative examples of the complexes (1A, 1P, 3A and 3P) via mass spectrometry confirm that the complexes are stable in physiological saline (0.9% NaCl) for at least 48 h (Supplementary Information).
# Complexes 1A, 1P, 3A and 3P where dissolved in a minimum amount of DMF and diluted 1:20 with physiological saline (0.9% NaCl). Mass spectra were recorded at t = 0 and after 48 hours.
# A375 melanoma cells [12] = assay: Cellular accumulation of Pt (GF-AAS); format: cell-based, human; details: A375, 1.5 and 3 μM, 6 and 24 h
structure (smiles),measurement,setting,value
[NH2][Pt]([NH2])([Cl])([Cl])([O]C(=O)CCc1c[nH]c2ccccc12)[O]C(=O)c1ccccc1 [Complex 3P],IC50,[1],2920 ± 1130 nM
same,IC50,[2],5940 ± 630 nM
same,IC50,[3],2280 ± 460 nM
same,IC50,[4],2000 ± 320 nM
same,IC50,[5],960 ± 60 nM
same,IC50,A375 melanoma cells [6],1510 ± 1250 nM
same,IC50,[7],4790 ± 690 nM
same,IC50,"[8]; C13* cisplatin-resistant, 72 h, MTT, ± S.D.",1470 ± 680 nM
same,RF (resistance factor),[8]; IC50 resistant (C13*) / parent line (2008),0.3
same,Log P (octanol/water),[9],−0.028 ± 0.07
same,IC50,[10],2600 nM
same,stable in physiological saline,[11],at least 48 h
same,cellular platinum accumulation (in words),A375 melanoma cells [12],internalized most efficiently
